Source: US20230218606A1, “USE OF 4-AMINOQUINOLINE COMPOUND IN TREATMENT OF CORONAVIRUS INFECTION” (priority 2020, published 2023)
Where two headings read alike, the source gives them in different places.

How the values were obtained:
SARS-CoV-2 [1] = experiment: microbe, parasite or virus in culture; format: cell-based
SARS-CoV-2 [2] = experiment: Example 3: co-localization of SARS-CoV-2 virus particles with early endosomes or endolysosomes (immunofluorescence); format: cell-based; details: 50 µM drug, veroE6 cells, MOI of 10, 90 min at 37° C.
Protocol: (at MOI of 10); • 3) the veroE6 cells were washed twice with PBS (purchased from Gibco, Catalog No. C10010500BT) to remove unbound virus particles, freshly pre-warmed MEM culture medium containing 2% FBS was added, and then the veroE6 cells were incubated at 37° C. for 90 min; • 4) the cells were fixed, and the immunofluorescence staining of cells was performed by using anti-virus NP protein antibody (red) (preserved by Wuhan Institute of Virology, Chinese Academy of Sciences) and anti-early endosomal protein EEA antibody (green) (purchased from Cell Signaling Technology, Catalog No. 48453) or anti-lysosomal protein LAMP antibody (green) (purchased from Cell Signaling Technology company, Catalog No. 3243); the nuclei were stained with Hoechst (blue) (purchased from Invitrogen company, Catalog No. H21492); • 5) quantitative analysis of co-localization of virus particles and endosomes of the cells in each group was performed, and co-localization rate was calculated.

Vero-E6 cells = details: Example 1, all test concentrations
Protocol: (§1) The cytotoxicity test of drugs was carried out by using CCK-8 kit (Beyotime). […] The original medium in the 96-well plate was discarded, 100 µL of the drug-containing MEM medium was taken and added to the cells, and three replicate wells were set for each concentration. A vehicle control (adding DMSO and medium to cells in wells, without adding drug) and a blank control (adding DMSO and medium to the wells, without cells) were set up. After the drug was added, the cells were incubated at 37° C. for 48 hours. • ③ 20 µL of CCK-8 solution (Beyotime) was added to the well to be tested, mixed gently without generating bubbles, and incubated subsequently at 37° C. for 2 hours. OD450 was read on a microplate reader (purchased from Molecular Devices, model: SpectraMax M5), and the reading was substituted into the following formula to calculate cell viability: • [formula] • Wherein, A was the reading of the microplate reader.

DENV-2 = details: cited from earlier work
[3] = system: Zika virus protease NS2B-NS3; details: read-out: inhibitory constant Ki; cited from earlier work
ZIKV = details: pregnant mice, 40 mg/kg/day intraperitoneally from first day after ZIKV infection, compared to PBS; cited from earlier work
in vitro = details: African green monkey
Protocol: as §1

SMILES | inhibition of replication of SARS-CoV-2 virus genome in the infected supernatant (SARS-CoV-2 [1]; Example 1, at 50 µM, 16.67 µM and 5.56 µM) | EC50 (SARS-CoV-2 [1]; Severe acute respiratory syndrome coronavirus 2, Vero C1008, 48 h, read-out: half-maximal effective concentration (EC50)) | co-localization rate of virus particles and early endosomes (EES) (SARS-CoV-2 [2]) | co-localization rate of virus particles and endolysosomes (ELs) (SARS-CoV-2 [2]) | toxic effect on cells (cell viability) (Vero-E6 cells) | reduction of DENV-2 virus titer (DENV-2; A549 cell line, 50 to 80 µM) | IC50 (DENV-2; A549 cells, read-out: IC50 for DENV-2 infected cells) | IC50 (DENV-2; Hepa1-6 cells, read-out: IC50 for DENV-2 infected cells) | IC50 (DENV-2; J774A.1 macrophages, read-out: IC50, inhibition of DENV-2 infection of macrophages) | IC50 (DENV-2; WS-1 cells, read-out: IC50 for DENV-2 infected cells) | Ki [3] | level of ZIKV infection in placenta (ZIKV) | CC50 at 48 h (in vitro)
CCN(CC)CCCC(C)Nc1ccnc2cc(Cl)ccc12 (stereo not drawn) [chloroquine phosphate] | could effectively inhibit the replication | 1.13 µM | 35.3% | 2.4% | no toxic effect on cells at all concentrations |  |  |  |  |  |  |  | 
CCN(CCO)CCCC(C)Nc1ccnc2cc(Cl)ccc12 (stereo not drawn) [hydroxychloroquine, 2-[[4-[(7-chloroquinolin-4-yl)amino]pentyl]ethylamino]-ethanol] |  |  | 29.2% | 0.03% |  | 100 times | 10.1 ± 1.6 µM | 12.9 ± 4.2 µM | 9.7 ± 1.3 µM | 12.9 ± 1.9 µM | 92.3 ± 11.9 µM | lower level of ZIKV infection | > 250 µM
